Test results: patent US20160251612A1, “CULTURE MEDIUM FOR ESTABLISHING NEUROEPITHELIAL STEM CELLS, METHOD FOR ESTABLISHING NEUROEPITHELIAL STEM CELLS, AND APPLICATIONS THEREOF” (YUNNAN KEY LAB OF PRIMATE BIOMEDICINE RESEARCH, priority 2014, published 2016)

Legend:
[1] = tested on: single neuroepithelial stem cells; test: single cell culture tests: single neuroepithelial stem cell to neural tubes, one ingredient removed from the culture medium or inhibitor added; type: cell-based; details: for ability of the cells to form neural tubes: ingredient removed from the proliferation culture medium; for ability of the cells to form neural tubes / cell proliferation ability: single cell culture; for cell proliferation ability: ingredient removed alone from the proliferation culture medium
Description: Additionally, a neuroepithelial stem cell can self-organize into the neural tube structures. Preferably, the operation may be performed as follows: neuroepithelial stem cells cultured for long term are digested into single cells, limitedly diluted, and cultured on wells of a 96-well plate coated with laminin, one cell per well, in the above proliferation culture medium; the liquid is changed every 2-3 days, and the single neuroepithelial stem cells self-organize into a series of neural tube structures at the 14-15th day. These neural tube structures derived from single cells express Sox2, Nestin, Pax6, ZO-1 and N-cadherin.
In addition, in the present embodiment, in order to detect which factors in the whole culture system are essential and necessary for the growth and generation of the neural tubes, it is possible to use the characteristic of the single cell forming the neural tube structure and to perform a series of single cell culture tests where one ingredient is removed from the culture medium every time to estimate which ingredients are essential for self-renewal of the neuroepithelial stem cells and formation of the neural tube.
SU5402 is an inhibitor of the FGF receptor. What the arrow points to is the miniature neural tube structure derived from the single neuroepithelial stem cell in the neuroepithelial stem cell proliferation culture medium containing SU5402.

[2] = tested on: single neuroepithelial stem cell; test: modeling neural tube defect disease by the single neuroepithelial stem cell to neural tubes assay (folic acid); type: cell-based; details: FIG. 5 (C)

Compound | ability of the cells to form neural tubes [1] | cell proliferation ability [1] | also measured
Cc1c[nH]c(-c2cnc(NCCNc3ccc(C#N)cn3)nc2-c2ccc(Cl)cc2Cl)n1.Cl [CHIR99021, reference compound] | no cell could produce the neural tube structure | – | –
NC(=O)c1ccc(-c2nc(-c3ccc4c(c3)OCO4)c(-c3ccccn3)[nH]2)cc1 [SB431542, reference compound] | does not affect the ability of the cells to form neural tubes | – | –
Cc1c[nH]c(/C=C2\C(=O)Nc3ccccc32)c1CCC(=O)O [SU5402, reference compound] | – | – | ability to produce neural tubes ([1]; SU5402 used to inhibit FGFR signaling pathway in proliferation culture medium): all cells lose the ability to produce neural tubes
Nc1nc2ncc(CNc3ccc(C(=O)N[C@@H](CCC(=O)O)C(=O)O)cc3)nc2c(=O)[nH]1 [folic acid] | – | – | colony apoptosis versus concentration of the folic acid [2]: in negative correlation with colony apoptosis; neural tube formation versus concentration of the folic acid [2]: in positive correlation with the neural tube formation
Leukemia Inhibitory Factor: regulates cell proliferation and differentiation; ingredient of the proliferation culture medium | significant decrease | significant decrease | continuous production of neural tube structures ([1]; secondary clone assays): necessary for cells to continuously produce neural tube structures
bFGF: growth factor; promotes early-stage differentiation and proliferation of neural stem cells | significant decrease | significant decrease | –
